In patent US20230042599A1, “CELLULOSIC COMPOUNDS AND AGRICULTURAL USES THEREOF” (HELIAE DEVELOPMENT, LLC, priority 2021, published 2023):

Assays:
[1] = test system: rifampicin-resistant strain of a Gram-negative Kosakonia sp. bacterium; experiment: Desiccation resistance (viability, CFU) of Kosakonia sp. cells mixed with protectant agents and dried in 96-well plates; type: cell-based; conditions: after 5 days and 7 days of desiccation stress; protectants at 1% or 0.5% (whole broth and cell pellet undiluted or 2x dilution)
Source text: A rifampicin-resistant strain of a Gram-negative Kosakonia sp. bacterium was mixed with water (untreated control or “UTC”), trehalose, carboxymethylcellulose (“CMC”), methylcellulose (“MC”), extracellular polymeric substance from Parachlorella kessleri Accession No. NCMA 202103001 (“EPS”), sodium alginate (“Na-Alginate”), Parachlorella kessleri Accession No. NCMA 202103001 whole broth (“3001 Broth”), or Parachlorella kessleri Accession No. NCMA 202103001 cell pellet after centrifugation (“3001 Pellet”) in 96-well plates. Each of the protectant agents was added undiluted (i.e., at a 1× dilution) or at a 2× dilution (i.e., at […] to 1 part protectant) for whole broth and cell pellets or at a concentration of 1% (i.e., 1 g/100 mL) or 0.5% (i.e., 0.5 g/100 mL) for all other protectants. […]
The liquid medium in the plates was allowed to dry at room temperature inside a desiccation chamber for several days to create desiccation stress in the bacterial cell cultures. […] The bacterial cells were evaluated for survival and growth after 5 days of desiccation stress and after 7 days of desiccation stress.
The colony forming unit (CFU) data in these figures were generated by counting the number of colonies on each spot (see spots on representative plates shown in FIGS. 2A, 2B, and 2C) and using the following formula for quantifying viable cell density: […]

[2] = test system: co-culture of Gram-negative Kosakonia pseudosacchari strain JM-387 and Pseudomonas aylmerense strain S1E40; experiment: Desiccation resistance (viability, CFU) of a bacterial co-culture mixed with protectant agents; type: cell-based; conditions: after 3, 5 and 7 days of desiccation stress, protectants at 1% (whole broth and cell pellet undiluted)

SMILES: OC[C@H]1O[C@H](O[C@H]2O[C@H](CO)[C@@H](O)[C@H](O)[C@H]2O)[C@H](O)[C@@H](O)[C@@H]1O [Trehalose]
- protective effect on the Kosakonia sp. cells (viability after desiccation stress) [1]: demonstrated a protective effect
- protective effect on the Gram-negative bacterial cells (viability after desiccation stress) [2]: demonstrated a protective effect
